We go through 23 molecules from patent publication US20250163057A1, “DCN-1 MODULATING COMPOUNDS AND METHODS OF USE THEREOF” (Cellarity, Inc., priority 2023, published 2025).

The test system of experiment [1] is Cullin-3 (CUL3) neddylation. Put plainly: AlphaLISA assay for Cullin-3 (CUL3) neddylation in TF 1 cells. The class given is cell-based. To be noted: Homo sapiens, TF-1, 3 h, 3 hours treatment. The method, then: An AiphaLISA assay was performed to evaluate the ability of the compounds to suppress neddylation, which is downstream from DCN-1 and DCN-2. A stronger inhibition of DCN-1 and DCN-2 is expected to result in a suppression of neddylation as shown by a lower AlphaLISA signal. The AlphaLISA assay for detecting Cullin-3 (CUL3) neddylation was performed according to manufacturer instructions (Revvity, Hopkinton, MA). Briefly, TF 1 cells (ATCC) were plated in Iscove's Modified Dulbecco's Medium (IMIDM) without supplements in 384-well plates. These cells were treated with […] for 3 hours before lysing them with AlphaLISA lysis buffer, 5× (Revvity). To detect the level of CUL3 neddylation, biotinylated anti-NEDD8 antibody, was added followed by AlphaLISA Acceptor beads conjugated with anti-CUL3 antibody. After overnight incubation, Streptavidin-coated Alpha Donor beads were added and incubated for 1 hour. The AlphaLISA signal was then read on a VICTOR Nivo Multimode Microplate Reader (Revvity, Hopkinton, MA). The positive control was 1 μM DI-1548, which is reported to reduce CUL3 neddylation, also referred to as C-1 in Example 41 (Zhou et al. Nature Comm. 2021). The neddylation signal was normalized such that the percent inhibition is 0% for vehicle control and 100% for positive control. The dose-response curves were fitted with the Hill equation to obtain IC50 values (Graphpad Prism).

Experiment [2] has as its target DCN1 (DCUND1) protein PONY domain (Homo sapiens (Human), UniProt Q96GG9). Put plainly: TR-FRET assay, DCN1 binding with FAM-labeled probe. Particulars: for IC50: TR FRET IC50 1 hr (nM). Put shortly:
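First, the E. coli-derived PONY domain was biotinylated and paired with streptavidin Tb cryptate. Compounds in 0.1% DMSO were then added to DCN1 and FAM-probe (5 nM/20 nM, or 0.31 nM/900 nM total with 800 nM unlabelled) in TritonX, 200 mM NaCl buffer. Finally, TR-FRET ratios were recorded at 1, 5 and 24 hrs.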
Background: Time-resolved FRET reads energy transfer from a long-lived donor to a nearby acceptor.

[3] abbreviates: 24 hr after treatment with compound, read-out: TR FRET IC50 24 hr.
Where [4] appears, read: 1 hr after treatment with compound.
Setting [5] is: read-out: TR FRET IC50 1 hr, 1 hr after treatment with compound.

The structures appear in SMILES notation. pIC50: −log10 of the molar value. Read-outs that look alike come from different tables or passages of the source.

DCN1 (DCUND1) protein PONY domain, sequence (Q96GG9 60-248): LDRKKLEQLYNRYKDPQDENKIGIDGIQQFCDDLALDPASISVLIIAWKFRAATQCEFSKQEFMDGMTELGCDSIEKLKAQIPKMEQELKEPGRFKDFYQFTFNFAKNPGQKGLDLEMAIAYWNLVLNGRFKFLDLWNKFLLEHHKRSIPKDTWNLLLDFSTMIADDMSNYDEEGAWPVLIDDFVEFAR

As a reminder, the pIC50 is −log10 of the IC50, conventionally taken in molar units. The IC50 is the concentration that gives 50% inhibition. `CCN1C(=O)[C@@H](NC(=O)c2cccc(C(F)(F)F)c2)[C@@H](C2CC2)c2c(C(=O)N3CCOC[C@@H]3C#N)nn(C3CCOCC3)c21` [Compound I-551]: the pIC50 in experiment [1] is 6.00 to 7.00; in experiment [2] (setting [3]) it was 6.00 to 6.70. Further, the IC50 in experiment [2] (setting [4]) fell in the range of 200 to 1000 nM.

With `CCN1C(=O)[C@@H](NC(=O)c2ccn(C(F)(F)F)n2)[C@@H](c2ccc(F)cc2)c2c(C(=O)N3CCN(C)CC3C#N)nn(-c3ccccc3)c21` (stereo partly drawn) [Compound I-684, N-((4S,5S)-3-(2-cyano-4-methylpiperazine-1-carbonyl)-7-ethyl-4-(4-fluorophenyl)-6-oxo-1-phenyl-4,5,6,7-tetrahydro-1H-pyrazolo[3,4-b]pyridin-5-yl)-1-(trifluoromethyl)-1H-pyrazole-3-carboxamide], the negative logarithm of the IC50 (pIC50) in experiment [1] is at least 7.00; in experiment [2] (setting [3]), at least 6.70; in experiment [2] (setting [5]) it was at least 6.70.

Consider `CCN1C(=O)[C@@H](NC(=O)c2ccc3ocnc3c2)[C@@H](C2CC2)c2c(C(=O)N3[C@H](C#N)C[C@H]4C[C@H]43)nn(C3CCOCC3)c21` [Compound I-601], for which the pIC50 in experiment [1] was 6.00 to 7.00; in experiment [2] (setting [3]), 6.00 to 6.70. Moreover, the IC50 in experiment [2] (setting [4]) fell in the range of 1000 to 3000 nM.

Turning to `CCN1C(=O)[C@@H](NC(=O)Cc2ccccc2)[C@@H](C2CC2)c2c(C(=O)N3[C@H](C#N)C[C@H]4C[C@H]43)nn(C3CCOCC3)c21` [Compound I-595], the pIC50 was under 6.00 in experiment [1] and 5.52 to 6.00 in experiment [2] (setting [3]). In addition, the IC50 in experiment [2] (setting [4]) fell in the range of 1000 to 3000 nM.

Regarding `CCN1C(=O)[C@@H](NC(=O)c2cccc(C(F)(F)F)c2)[C@@H](c2ccc(F)cc2)c2c(C(=O)N(C)[C@H](C#N)CCN(C)C)nn(-c3ccccc3)c21` (single isomer, unassigned) [Compound I-303, (4S,5S)—N-[(1S*)-1-cyano-3-(dimethylamino)propyl]-7-ethyl-4-(4-fluorophenyl)-N-methyl-6-oxo-1-phenyl-5-[3-(trifluoromethyl)benzamido]-4H,5H-pyrazolo[3,4-b]pyridine-3-carboxamide], in experiment [1], the negative logarithm of the IC50 (pIC50) is at least 7.00.

As for `CCN1C(=O)[C@@](C)(NC(=O)c2cccc(C(F)(F)F)c2)[C@@H](c2ccc(F)cc2)c2c([C@@H](C)NC#N)nn(-c3ccccc3)c21` [Compound I-539], the negative-log IC50 (pIC50) in experiment [1] was at least 7.00; in experiment [2] (setting [3]) it was at least 6.70; in experiment [2] (setting [5]), at least 6.70.

As for `CCN1C(=O)[C@H](NC(=O)c2cccc(C(F)(F)F)c2)[C@H](c2ccc(F)cc2)c2c(C(=O)N(CC#N)CCC(=O)OC)nn(-c3ccccc3)c21` (stereo in doubt) [Compound I-461], the pIC50 in experiment [1] is under 6.00; in experiment [2] (setting [3]), 5.52 to 6.00. Moreover, the IC50 in experiment [2] (setting [4]) fell in the range of 1000 to 3000 nM.

For the molecule `CCN1C(=O)[C@H](NC(=O)c2cccc(C(F)(F)F)c2)[C@H](c2ccc(F)cc2)c2c(C(=O)N(CC#N)CCO)nn(-c3ccccc3)c21` (stereo in doubt) [Compound I-639], the pIC50 is under 6.00 in experiment [1] and 5.52 to 6.00 in experiment [2] (setting [3]). For the same molecule, the IC50 in experiment [2] (setting [4]) was in the range of 1000 to 3000 nM.

Consider `CCN1C(=O)[C@@H](NC(=O)c2cccc(C(F)(F)F)c2)[C@@H](c2ccc(F)cc2)c2c(CN(C#N)CCCCN(C)C)nn(-c3ccccc3)c21` (single isomer, unassigned) [Compound I-249, ˜{N}-[(4˜{S},5˜{R})-3-[[cyano-[4-(dimethylamino)butyl]amino]methyl]-7-ethyl-4-(4-fluorophenyl)-6-oxo-1-phenyl-4,5-dihydropyrazolo[3,4-b]pyridine-5-yl]-3-(trifluoromethyl)benzamide], for which the negative-log IC50 (pIC50) was 6.00 to 7.00 in experiment [1] and 6.00 to 6.70 in experiment [2] (setting [3]). For the same molecule, the half-maximal inhibitory concentration (IC50) in experiment [2] (setting [4]) lay in the range of 200 to 1000 nM.

With `CCN1C(=O)[C@H](NC(=O)c2cccc(C(F)(F)F)c2)[C@H](c2ccc(F)cc2)c2c(C(=O)N(CC#N)CC(=O)OC)nn(-c3ccccc3)c21` (stereo in doubt) [Compound I-406], the pIC50 in experiment [1] is 6.00 to 7.00; in experiment [2] (setting [3]) it was at least 6.70. For the same molecule, the IC50 in experiment [2] (setting [4]) was 200 to 1000 nM.

On to `C=C(CN1CCC(C)(O)C1)C(=O)NCc1nn(-c2ccccc2)c2c1[C@H](c1ccc(F)cc1)[C@H](NC(=O)c1cccc(C(F)(F)F)c1)C(=O)N2CC` (stereo partly drawn) [Compound I-25], for which the pIC50 in experiment [1] was at least 7.00; in experiment [2] (setting [3]) it was at least 6.70; in experiment [2] (setting [5]), at least 6.70.

For `CCN1C(=O)[C@H](NC(=O)c2cccc(C(F)(F)F)c2)[C@H](c2ccc(F)cc2)c2c(C(=O)N3CCC[C@H]3C#N)nn(-c3cccc(OCCCN(C)C4COC4)c3)c21` [Compound I-480, N-((4R,5R)-3-((S)-2-cyanopyrrolidine-1-carbonyl)-7-ethyl-4-(4-fluorophenyl)-1-(3-(3-(methyl(oxetan-3-yl)amino)propoxy)phenyl)-6-oxo-4,5,6,7-tetrahydro-1H-pyrazolo[3,4-b]pyridin-5-yl)-3-(trifluoromethyl)benzamide], the results for the pIC50 in experiment [1] and in experiment [2] (setting [3]) were under 6.00 and 5.52 to 6.00, respectively. The IC50 in experiment [2] (setting [4]) was in the range of 1000 to 3000 nM.

For `CCN1C(=O)[C@H](NC(=O)c2cccc(C(F)(F)F)c2)[C@H](c2ccc(F)cc2)c2c(C(=O)N3CCC[C@H]3C#N)nn(C3CC3)c21` [Compound I-558], the negative-log IC50 (pIC50) in experiment [1] was under 6.00; in experiment [2] (setting [3]), 5.52 to 6.00. Moreover, the concentration for half-maximal inhibition (IC50) in experiment [2] (setting [4]) is 1000 to 3000 nM.

For `CCN1C(=O)[C@@H](NC(=O)c2cccc(C(F)(F)F)c2)[C@@H](c2ccc(F)cc2)c2c(CN(C#N)CCCN3CCN(C4COC4)CC3)nn(-c3ccccc3)c21` [Compound I-614], the pIC50 in experiment [1] is at least 7.00; in experiment [2] (setting [3]) it was at least 6.70. Besides, the half-maximal inhibitory concentration (IC50) in experiment [2] (setting [4]) is 200 to 1000 nM.

Turning to `CN1C(=O)[C@H](NC(=O)c2cccc(C(F)(F)F)c2)[C@H](C2CC2)c2c(C(=O)N3[C@H](C#N)C[C@H]4C[C@H]43)nn(C3CCOCC3)c21` (relative stereo) [Compound I-528, N-((4R*,5R*)-3-((1 R,3S,5R)-3-cyano-2-azabicyclo[3.1.0]hexane-2-carbonyl)-4-cyclopropyl-7-methyl-6-oxo-1-(tetrahydro-2H-pyran-4-yl)-4,5,6,7-tetrahydro-1H-pyrazolo [3,4-b]pyridin-5-yl)-3-(trifluoromethyl)benzamide], the pIC50 in experiment [1] was under 6.00; in experiment [2] (setting [3]), 5.52 to 6.00. The half-maximal inhibitory concentration (IC50) in experiment [2] (setting [4]) lay in the range of 1000 to 3000 nM.

For `CCN1C(=O)[C@@H](NC(=O)[C@@H]2CCc3nccc(=O)n32)[C@@H](C2CC2)c2c(C(=O)N3[C@H](C#N)C[C@H]4C[C@H]43)nn(C3CCOCC3)c21` [Compound I-548], the pIC50 in experiment [1] is under 6.00; in experiment [2] (setting [3]), 5.52 to 6.00. Besides, in experiment [2] (setting [4]), the 50% inhibitory concentration (IC50) is 1000 to 3000 nM.

For `CCCn1nc(C(=O)N(CC#N)C2CC2)c2c1N(CC)C(=O)[C@H](NC(=O)c1cccc(C(F)(F)F)c1)[C@@H]2C1CC1` [Compound I-455], the negative logarithm of the IC50 (pIC50) in experiment [1] is under 6.00; in experiment [2] (setting [3]), 5.52 to 6.00. Also, the IC50 in experiment [2] (setting [4]) was 1000 to 3000 nM.

For `CCN1C(=O)[C@@H](NC(=O)c2ccc3[nH]cnc3c2)[C@@H](C2CC2)c2c(C(=O)N3[C@H](C#N)C[C@H]4C[C@H]43)nn(C3CCOCC3)c21` [Compound I-632], the pIC50 in experiment [1] was under 6.00; in experiment [2] (setting [3]), 5.52 to 6.00. Besides, the IC50 in experiment [2] (setting [4]) was 1000 to 3000 nM.

As for `CCN1C(=O)[C@H](NC(=O)c2cccc(C(F)(F)F)c2)[C@H](C2CC2)c2c(C(=O)N(C)C(C)C#N)nn(-c3ccccc3)c21` (stereo partly drawn) [Compound I-676], the negative-log IC50 (pIC50) is under 6.00 in experiment [1] and 5.52 to 6.00 in experiment [2] (setting [3]). Moreover, in experiment [2] (setting [4]), the concentration for half-maximal inhibition (IC50) is 1000 to 3000 nM.

As to `CCN1C(=O)[C@@H](NC(=O)c2cccc(C(F)(F)F)c2)[C@@H](c2ccc(F)cc2)c2c(C(=O)N(C)C3(C#N)CCC3)nn(-c3ccccc3)c21` (racemic) [Compound I-689], the pIC50 in experiment [1] is 6.00 to 7.00; in experiment [2] (setting [3]), at least 6.70. Also, in experiment [2] (setting [4]), the 50% inhibitory concentration (IC50) was 1000 to 3000 nM.

Consider `CCN1C(=O)[C@@H](NC(=O)c2cccc(C(F)(F)F)c2)[C@@H](c2ccc(F)cc2)c2c(C(=O)N(CC#N)CCN(C)C)nn(-c3ccccc3)c21` (racemic) [Compound I-448], for which the negative-log IC50 (pIC50) in experiment [1] is under 6.00; in experiment [2] (setting [3]) it was at least 6.70; in experiment [2] (setting [5]) it was at least 6.70.

For the molecule `CCN1C(=O)[C@@H](NC(=O)c2cccc(C(F)(F)F)c2)[C@H](c2ccc(F)cc2)c2c(CNC(=O)C(C)C#N)nn(-c3ccccc3)c21` (stereo partly drawn) [Compound I-641], the values for the pIC50 in experiment [1] and in experiment [2] (setting [3]) were under 6.00 and 6.00 to 6.70, respectively. Further, in experiment [2] (setting [4]), the IC50 is 200 to 1000 nM.

For `CCN1C(=O)[C@@H](NC(=O)c2cccc(C(F)(F)F)c2)[C@@H](c2ccc(F)cc2)c2c(CNC(=O)C#CCN3CCOCC3)nn(-c3ccccc3)c21` (racemic) [Compound I-68, ˜{N}—[˜{rac}-(4˜{S},5˜{S})-7-ethyl-4-(4-fluorophenyl)-3-[(4-morpholinobut-2-ynoylamino)methyl]-6-oxo-1-phenyl-4,5-dihydropyrazolo[3,4-b]pyridine-5-yl]-3-(trifluoromethyl)benzamide], in experiment [2] (setting [3]), the pIC50 is 6.00 to 6.70. Moreover, the IC50 in experiment [2] (setting [4]) lay within 200 to 1000 nM.
